Key:
Test in all cases: In vitro antibacterial evaluation: minimum inhibitory concentration (MIC), broth dilution method
Format in all cases: cell-based
Enterococcus sp. = test system: Enterococcus sp.
Procedure: (§1) The minimum inhibitory concentration (MIC), the lowest concentration of the antibiotic which inhibits growth of the test organism, is determined by the broth dilution method using Muller-Hinton II […] (Baltimore Biological Laboratories) following the recommendations of the National Committee for Clinical Laboratory Standards [Methods for dilution antimicrobial susceptibility tests for bacteria that grow aerobically, approved standard M7-A2, National Committee for Clinical Laboratory Standards, Villanova, Pa].
(§2) An inoculum level of 5×10^5 CFU/mL, and a range of antibiotic concentrations (64-0.06 μg/mL) is used. […] The test organisms include a spectrum of Gram-positive bacteria comprised of Staphylococcus sp., Streptococcus sp. and Enterococcus sp. These organisms include recent clinical isolates that are resistant to methicillin, penicillin and/or vancomycin.

Escherichia coli = test system: Escherichia coli
Procedure: as §1, §2

Streptococcus sp. = test system: Streptococcus sp.
Procedure: as §1, §2

Staphylococcus sp. = test system: Staphylococcus sp.
Procedure: as §1, §2

[1] = broth dilution, 18 hours at 35° C.

CC(c1ccccc1)C1NC(=O)CNC(=O)C(CO)NC(=O)C(C(O)C2CN(c3nc4ccccc4s3)C(=N)N2C2OC(CO)C(O)C(O)C2O)NC(=O)C(C(O)C2CNC(=Nc3nc4ccccc4s3)N2)NC(=O)C(Cc2ccc(OC3OC(CO)C(OC4OC(CO)C(O)C(O)C4O)C(O)C3O)cc2)NC1=O (stereo not drawn) [Example 94, Cyclo[glycyl-β-methylphenylalanyl-O-(4-O-hexopyranosylhexopyranosyl)tyrosyl-3-[2-(1,3-benzothiazol-2-ylimino)imidazolidin-4-yl]seryl-3-[1-(1,3-benzo-thiazol-2-yl)-2-imino-3-hexonyranosylimidazolidin-4-yl]serylseryl]]
64 µg/mL: MIC Escherichia coli (GC 4560) (Escherichia coli; strain GC 4560)
>64 µg/mL: MIC Enterococcus faecalis (GC 2242) (Enterococcus sp.; Enterococcus faecalis (GC 2242), broth dilution, 18 hours at 35° C.) | MIC Enterococcus faecalis (GC 2691) (Enterococcus sp.; Enterococcus faecalis (GC 2691), broth dilution, 18 hours at 35° C.) | MIC Enterococcus faecalis (GC 3059) (Enterococcus sp.; Enterococcus faecalis (GC 3059), broth dilution, 18 hours at 35° C.) | MIC Enterococcus faecalis (ATCC 29212) (Enterococcus sp.; strain ATCC 29212) | MIC Enterococcus faecalis (GC 2242) (Enterococcus sp.; strain GC 2242) | MIC Enterococcus faecium (GC 2243) (Enterococcus sp.; strain GC 2243) | MIC Enterococcus faecalis (GC 2691) (Enterococcus sp.; strain GC 2691) | MIC Enterococcus faecalis (GC 3059) (Enterococcus sp.; strain GC 3059) | MIC Enterococcus faecalis (GC 4552) (Enterococcus sp.; strain GC 4552) | MIC Enterococcus faecalis (GC 4553) (Enterococcus sp.; strain GC 4553) | MIC Enterococcus faecalis (GC 4554) (Enterococcus sp.; strain GC 4554) | MIC Enterococcus faecium (GC 4556) (Enterococcus sp.; strain GC 4556) | MIC Enterococcus faecium (GC 4557) (Enterococcus sp.; strain GC 4557) | MIC Enterococcus avium (GC 4558) (Enterococcus sp.; strain GC 4558) | MIC Enterococcus faecalis (GC 6189) (Enterococcus sp.; strain GC 6189) | MIC Escherichia coli (ATCC 25922) (Escherichia coli; strain ATCC 25922) | MIC Escherichia coli (GC 4559) (Escherichia coli; strain GC 4559) | MIC Streptococcus agalactiae (GC 4564) (Streptococcus sp.; Streptococcus agalactiae (GC 4564), broth dilution, 18 hours at 35° C.) | MIC Streptococcus pneumoniae (ATCC 6301) (Streptococcus sp.; Streptococcus pneumoniae (ATCC 6301), broth dilution, 18 hours at 35° C.) | MIC Streptococcus pneumoniae (GC 1894) (Streptococcus sp.; Streptococcus pneumoniae (GC 1894), broth dilution, 18 hours at 35° C.) | MIC Streptococcus pneumoniae (GC 4565) (Streptococcus sp.; Streptococcus pneumoniae (GC 4565), broth dilution, 18 hours at 35° C.) | MIC Streptococcus pyogenes (GC 4563) (Streptococcus sp.; Streptococcus pyogenes (GC 4563), broth dilution, 18 hours at 35° C.) | MIC Streptococcus pneumoniae (ATCC 6301) (Streptococcus sp.; strain ATCC 6301) | MIC Streptococcus pneumoniae (GC 1894) (Streptococcus sp.; strain GC 1894) | MIC Streptococcus pyogenes (GC 4563) (Streptococcus sp.; strain GC 4563) | MIC Streptococcus agalactiae (GC 4564) (Streptococcus sp.; strain GC 4564) | MIC Streptococcus pneumoniae (GC 4565) (Streptococcus sp.; strain GC 4565) | MIC Staphylococcus aureus (ATCC 29213) (Staphylococcus sp.; [1]) | MIC Staphylococcus aureus (GC 1131) (Staphylococcus sp.; [1]) | MIC Staphylococcus aureus (GC 3051) (Staphylococcus sp.; [1]) | MIC Staphylococcus aureus (GC 3053) (Staphylococcus sp.; [1]) | MIC Staphylococcus aureus (GC 4541) (Staphylococcus sp.; [1]) | MIC Staphylococcus aureus (GC 4542) (Staphylococcus sp.; [1]) | MIC Staphylococcus aureus (GC 4544) (Staphylococcus sp.; [1]) | MIC Staphylococcus aureus (GC 4545) (Staphylococcus sp.; [1]) | MIC Staphylococcus aureus-SMITH (GC 4543) (Staphylococcus sp.; strain GC 4543, 18 hours at 35° C.) | MIC Staphylococcus haemolyticus (GC 4546) (Staphylococcus sp.; strain GC 4546) | MIC Coagulase Negative Staphylococcus (GC 4547) (Staphylococcus sp.; strain GC 4547) | MIC Coagulase Negative Staphylococcus (GC 4548) (Staphylococcus sp.; strain GC 4548) | MIC Coagulase Negative Staphylococcus (GC 4549) (Staphylococcus sp.; strain GC 4549) | MIC Coagulase Negative Staphylococcus (GC 4551) (Staphylococcus sp.; strain GC 4551) | MIC Staphylococcus aureus-SMITH (GC 4543) (Staphylococcus sp.; strain SMITH GC 4543, broth dilution, 18 hours at 35° C.)

From patent publication US8247211B2, “Glycopeptide antibiotics” (American Cyanamid Company, priority 2001, dated 2012)
